# Measurements reported in patent US9096531B2, “Fused imidazole derivative” (TOA EIYO LTD., priority 2010, dated 2015).
# Target: T1, human T-type calcium channels (human Cav3.2) (Homo sapiens, UniProt O95180)
# T1 construct: expressed in transfected cells
# Experiment: Electrophysiological test (patch clamp method) in HEK293 cells stably expressing human Cav3.2
# Type: cell-based
# Details: auto-patch clamp, peak calcium current, holding potential -80 mV, pulse of -20 mV
# Protocol: For each test, human embryonic kidney cells (HEK293 cells) in which human T-type calcium channels (human Cav3.2) were stably expressed were used.
# HEK293 cells in which human Cav3.2 were stably expressed were cultured at 37° C. in Alpha-MEM containing 10% (v/v) fetal bovine serum (FBS), penicillin (100 U/mL), streptomycin (100 μg/mL) and G418 (250 μg/mL). The cells were dissociated by Accutase (Sigma-Aldrich Co.) treatment and were used as a suspension in the culture medium. The calcium current was measured with an auto-patch clamp system (Port-a-Patch, Nanion Technologies, GmbH), by using an internal solution (50 mmol/L CsCl, 10 mmol/L NaCl, 60 mmol/L CsF, 2 mmol/L MgCl2, 20 mmol/L EGTA, 10 mmol/L HEPES/CsOH, pH 7.2) and an external solution (80 mmol/L NaCl, 1 mmol/L TEAC1, 3 mmol/L KCl, 35 mmol/L CaCl2, 10 mmol/L MgCl2, 10 mmol/L HEPES, pH 7.2).
# The inhibitory effect of the compound against the peak current was measured by fixing the holding potential at −80 mV, and applying a pulse of −20 mV to the cells at an interval of 5 seconds. The compound evaluation was carried out by sequentially replacing the external solution containing the compound (1 μmol/L, 3 μmol/L, 10 μmol/L, and 50 μmol/L), and measuring the current. The inhibition ratio was calculated from the peak current value, and the IC50 value was determined by converting the inhibition ratio according to a probit analysis, and then calculating the IC50 value from an approximation formula deduced by linear regression.
# T1 sequence (O95180 whole entry): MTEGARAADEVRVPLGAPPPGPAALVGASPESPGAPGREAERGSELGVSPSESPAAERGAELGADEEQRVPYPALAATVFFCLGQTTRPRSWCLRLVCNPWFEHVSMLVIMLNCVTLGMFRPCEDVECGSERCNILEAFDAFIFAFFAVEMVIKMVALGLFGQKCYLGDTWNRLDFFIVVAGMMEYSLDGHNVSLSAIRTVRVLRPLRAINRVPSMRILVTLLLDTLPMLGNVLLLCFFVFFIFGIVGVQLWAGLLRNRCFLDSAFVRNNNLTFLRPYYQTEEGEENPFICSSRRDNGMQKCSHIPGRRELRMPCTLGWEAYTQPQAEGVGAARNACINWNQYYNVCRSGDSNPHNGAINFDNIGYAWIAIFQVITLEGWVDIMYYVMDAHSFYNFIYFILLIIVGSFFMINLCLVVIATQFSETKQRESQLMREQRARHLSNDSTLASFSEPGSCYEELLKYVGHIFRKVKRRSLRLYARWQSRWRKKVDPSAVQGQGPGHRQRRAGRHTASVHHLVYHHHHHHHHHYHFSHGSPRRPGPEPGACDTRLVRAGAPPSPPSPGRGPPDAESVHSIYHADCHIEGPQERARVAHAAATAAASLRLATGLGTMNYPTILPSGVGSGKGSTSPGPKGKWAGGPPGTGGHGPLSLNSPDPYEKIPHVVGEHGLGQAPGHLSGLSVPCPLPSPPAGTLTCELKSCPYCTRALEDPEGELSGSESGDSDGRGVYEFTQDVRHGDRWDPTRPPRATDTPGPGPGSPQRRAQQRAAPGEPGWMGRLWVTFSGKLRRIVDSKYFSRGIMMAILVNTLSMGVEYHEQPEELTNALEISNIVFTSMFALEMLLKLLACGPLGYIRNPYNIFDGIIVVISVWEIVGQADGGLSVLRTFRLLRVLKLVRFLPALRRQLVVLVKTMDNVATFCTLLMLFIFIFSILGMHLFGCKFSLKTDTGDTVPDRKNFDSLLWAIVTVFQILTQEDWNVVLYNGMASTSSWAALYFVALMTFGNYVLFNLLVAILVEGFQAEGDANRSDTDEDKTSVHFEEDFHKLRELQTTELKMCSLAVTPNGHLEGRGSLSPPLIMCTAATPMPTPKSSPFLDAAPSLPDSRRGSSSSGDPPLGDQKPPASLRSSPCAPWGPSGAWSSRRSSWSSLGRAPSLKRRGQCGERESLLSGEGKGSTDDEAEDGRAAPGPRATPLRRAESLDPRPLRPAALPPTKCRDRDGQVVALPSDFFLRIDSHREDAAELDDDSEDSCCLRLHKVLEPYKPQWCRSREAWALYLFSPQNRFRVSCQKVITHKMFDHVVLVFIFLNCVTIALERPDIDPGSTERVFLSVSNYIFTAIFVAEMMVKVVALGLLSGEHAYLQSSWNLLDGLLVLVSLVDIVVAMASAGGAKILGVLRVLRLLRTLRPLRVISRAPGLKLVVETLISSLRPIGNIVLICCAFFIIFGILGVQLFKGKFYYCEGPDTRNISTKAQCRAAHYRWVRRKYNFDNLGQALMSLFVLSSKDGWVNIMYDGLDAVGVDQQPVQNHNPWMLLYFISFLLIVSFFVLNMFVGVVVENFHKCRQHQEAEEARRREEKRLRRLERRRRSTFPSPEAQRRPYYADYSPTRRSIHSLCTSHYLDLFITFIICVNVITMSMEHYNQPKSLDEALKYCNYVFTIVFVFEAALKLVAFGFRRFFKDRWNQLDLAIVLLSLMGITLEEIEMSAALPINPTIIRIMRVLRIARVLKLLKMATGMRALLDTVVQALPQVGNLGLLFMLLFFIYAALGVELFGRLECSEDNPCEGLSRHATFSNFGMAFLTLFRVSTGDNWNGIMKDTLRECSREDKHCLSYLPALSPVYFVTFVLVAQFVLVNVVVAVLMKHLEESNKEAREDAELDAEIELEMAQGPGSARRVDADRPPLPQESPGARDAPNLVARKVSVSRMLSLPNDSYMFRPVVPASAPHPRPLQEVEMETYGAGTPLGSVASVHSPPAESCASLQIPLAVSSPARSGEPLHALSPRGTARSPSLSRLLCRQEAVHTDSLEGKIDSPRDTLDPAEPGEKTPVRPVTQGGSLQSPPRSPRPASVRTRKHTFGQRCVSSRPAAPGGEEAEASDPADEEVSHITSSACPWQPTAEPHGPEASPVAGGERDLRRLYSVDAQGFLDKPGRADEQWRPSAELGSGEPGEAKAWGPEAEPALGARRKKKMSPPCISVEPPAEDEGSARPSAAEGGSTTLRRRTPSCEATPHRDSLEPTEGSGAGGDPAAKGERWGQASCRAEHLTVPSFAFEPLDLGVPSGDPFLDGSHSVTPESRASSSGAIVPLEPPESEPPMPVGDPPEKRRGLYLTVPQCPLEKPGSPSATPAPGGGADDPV
row,IC50 [nM],SMILES
1,1920,"OC(c1ccc(OC(F)(F)F)cc1)c1nc2cc(F)ccc2[nH]1 (stereo not shown) [Example 1, (5-Fluoro-1H-benzimidazol-2-yl)-(4-trifluoromethoxyphenyl)methanol]"
2,1010,"OC(c1ccc(OC(F)(F)F)cc1)c1nc2cc(Cl)cnc2[nH]1 (stereo not shown) [Example 44, (6-Chloro-3H-imidazo[4,5-b]pyridin-2-yl)-(4-trifluoromethoxyphenyl)methanol]"
3,1770,CCOC(c1ccc(OC(F)(F)F)cc1)c1nc2cc(Cl)cnc2[nH]1 (stereo not shown) [Example 53]
4,1760,"CCOC(c1ccc(OC(F)(F)F)cc1)c1nc2cc(F)ccc2[nH]1 (stereo not shown) [Example 70, 2-[Ethoxy(4-trifluoromethoxyphenyl)methyl]-5-fluoro-1H-benzimidazole]"

# Target: T1, human T-type calcium channels (human Cav3.2)
# Experiment: Intracellular calcium (Fura2 fluorescence) assay in HEK293 cells stably expressing human Cav3.2
# Type: cell-based
# Details: Fura2 fluorescence ratio after calcium chloride addition, 15 min with compound
# Protocol: Representative compounds of the present invention were tested on the selective antagonistic effect against T-type calcium channels (Cav3.2) by way of the following Test Example. For each test, human embryonic kidney cells (HEK293 cells) in which human T-type calcium channels (human Cav3.2) were stably expressed were used.
# HEK293 cells in which human Cav3.2 were stably expressed were cultured at 37° C. in Alpha-MEM containing 10% (v/v) fetal bovine serum (FBS), penicillin (100 U/mL), streptomycin (100 μg/mL) and G418 (250 μg/mL). The cells were suspended in the culture medium and seeded onto a 96-well plate, and then the cells were cultured for 24 hours. The culture medium was removed, and the culture medium was replaced with S-MEM containing 5% (v/v) FBS, calcium chloride (0.5 mmol/L), L-glutamine (2 mmol/L), L-alanine (8.9 ng/mL), L-asparagine (13.2 ng/mL), L-aspartic acid (1.33 ng/mL), L-glutamic acid (1.47 ng/mL), glycine (7.5 ng/mL), L-proline (11.5 ng/mL), L-serine (10.5 ng/mL), penicillin (100 U/mL), and streptomycin (100 μg/mL). The cells were cultured for another 24 hours. The culture medium was removed again, and the cells were washed with an assay buffer (140 mmol/L sodium chloride, 5 mmol/L potassium chloride, 0.5 mmol/L magnesium chloride, 0.5 mmol/L calcium chloride, 10 mmol/L glucose, 0.4 mmol/L magnesium sulfate, 10 mmol/L HEPES, and 250 μmol/L sulfinpyrazone, pH 7.4) that had been kept warm at 37° C. Subsequently, the assay buffer in which Fura2-AM, which is a fluorescent Ca^2+ indicator, was dissolved at 5 μM was added to the cells, and the cells were cultured at 37° C. for 30 minutes. The assay buffer containing dissolved Fura2 was removed, and the cells were washed with the assay buffer. Subsequently, the assay buffer to which a test compound had been added was added to the cells, and the cells were cultured for 15 minutes. The plate was placed in a fluorescence analyzer (Flex Station II, Molecular Devices, LLC), the baseline was measured, and then the change in the intracellular calcium concentration that was caused when an assay buffer containing 100 mmol/L calcium chloride was added, was measured (excited at 340 nm and 380 nm, and detected at 510 nm). Thus, the fluorescence intensity ratios obtainable at the respective wavelengths were calculated.
# Meanwhile, the test compound solution was prepared by dissolving each of the test compounds in DMSO to a concentration of 10 mmol/L, and then adding the assay buffer to a predetermined concentration. As a control solution, DMSO was used instead of the test compounds.
# The inhibitory effect value (%) of each test compound was calculated by subtracting the average value of the fluorescence intensity ratio for the period of 0 to 20 seconds after the initiation of measurement, from the average value of the fluorescence intensity ratio for the period of 45 to 50 seconds after the initiation of measurement, and comparing the activity in the presence of the test compound with the value in the control solution as the maximum activity of Cav3.2.
# Curve fitting formula (Model 08: Sigmoidal Inhibition Curve, Vmax+Y2 to Y2) Y=Vmax×(1−(X^n/(K^n+X^n)))+Y2
# % inhibition value=(RFU (compound)—RFU(LC))/(RFU (HC)−(RFU(LC))
# HC: Average of RFU value for the period of 25 to 30 seconds after the addition of Ca^2+-containing assay buffer after the control solution treatment (for the period of 45 to 50 seconds after the initiation of measurement)
# LC: Average of RFU value for the period of 25 to 30 seconds after the addition of non-Ca^2+-containing assay buffer after the control solution treatment (for the period of 45 to 50 seconds after the initiation of measurement)
# The RFU in the formula represents the relative fluorescence unit.
row,IC50 [nM],SMILES
1,320,"OC(c1ccc(OC(F)(F)F)cc1)c1nc2cc(F)ccc2[nH]1 (stereo not shown) [Example 1, (5-Fluoro-1H-benzimidazol-2-yl)-(4-trifluoromethoxyphenyl)methanol]"
2,470,OC(c1ccc(SC(F)(F)F)cc1)c1nc2cc(F)ccc2[nH]1 (stereo not shown) [Example 3]
3,650,OC(c1ccc(C(F)(F)F)cc1)c1nc2cc(F)ccc2[nH]1 (stereo not shown) [Example 4]
4,210,OC(c1ccc(C(F)(F)F)c(F)c1)c1nc2cc(F)ccc2[nH]1 (stereo not shown) [Example 5]
5,590,OC(c1ccc(OC(F)(F)C(F)F)cc1)c1nc2cc(F)ccc2[nH]1 (stereo not shown) [Example 6]
6,100,OC(c1ccc(OC(F)(F)F)c(F)c1)c1nc2cc(F)ccc2[nH]1 (stereo not shown) [Example 12]
7,270,OC(c1ccc(OC(F)(F)F)c(Br)c1)c1nc2cc(F)ccc2[nH]1 (stereo not shown) [Example 13]
8,490,OC(c1ccc2c(c1)OC(F)(F)O2)c1nc2cc(F)ccc2[nH]1 (stereo not shown) [Example 16]
9,920,CCOC(c1ccc(C(F)(F)F)cc1)c1nc2cc(F)ccc2[nH]1 (stereo not shown) [Example 27]
10,370,CCOC(c1ccc(OC(F)(F)F)c(F)c1)c1nc2cc(F)ccc2[nH]1 (stereo not shown) [Example 29]
11,630,CCOC(c1ccc2c(c1)OC(F)(F)O2)c1nc2cc(F)ccc2[nH]1 (stereo not shown) [Example 32]
12,10,"OC(c1ccc(OC(F)(F)F)cc1)c1nc2cc(Cl)cnc2[nH]1 (stereo not shown) [Example 44, (6-Chloro-3H-imidazo[4,5-b]pyridin-2-yl)-(4-trifluoromethoxyphenyl)methanol]"
13,220,OC(c1ccc(OC(F)(F)F)cc1)c1nc2ccc(Cl)nc2[nH]1 (stereo not shown) [Example 46]
14,590,CCCSc1ccc2[nH]c(C(O)c3ccc(OC(F)(F)F)cc3)nc2c1 (stereo not shown) [Example 47]
15,160,OC(c1ccc(OC(F)(F)F)cc1)c1nc2cccnc2[nH]1 (stereo not shown) [Example 49]
16,50,OC(c1ccc2c(c1)OC(F)(F)O2)c1nc2cc(Cl)cnc2[nH]1 (stereo not shown) [Example 50]
17,170,CCOC(c1ccc(OC(F)(F)F)cc1)c1nc2cc(Cl)cnc2[nH]1 (stereo not shown) [Example 53]
18,700,CCOC(c1ccc(OCc2ccc(F)cc2)cc1)c1nc2cc(Cl)cnc2[nH]1 (stereo not shown) [Example 58]
19,580,"CCOC(c1ccc(OC(F)(F)F)cc1)c1nc2cc(F)ccc2[nH]1 (stereo not shown) [Example 70, 2-[Ethoxy(4-trifluoromethoxyphenyl)methyl]-5-fluoro-1H-benzimidazole]"
20,780,COC(c1ccc(OC(F)(F)F)cc1)c1nc2cc(F)ccc2[nH]1 (stereo not shown) [Example 89]
21,960,CCOc1ccc2[nH]c(C(OCC)c3ccc(SC(F)(F)F)cc3)nc2c1 (stereo not shown) [Example 91]
22,370,OC(c1ccc(OC(F)(F)F)cc1)c1nc2cc(Br)ccc2[nH]1 (stereo not shown) [Example 112]
23,190,"N#Cc1ccc2[nH]c(C(O)c3ccc(OC(F)(F)F)cc3)nc2c1 (stereo not shown) [Example 114, 2-[Hydroxy(4-trifluoromethoxyphenyl)methyl]-1H-benzimidazole-5-carbonitrile]"
24,990,"CCOC(c1ccc(OC(F)(F)F)cc1)c1nc2cc(C#N)ccc2[nH]1 (stereo not shown) [Example 115, 2-[Ethoxy(4-trifluoromethoxyphenyl)methyl]-1H-benzimidazole-5-carbonitrile]"
